Data on 2 compounds can be found in article PMC10872342, “9S1R nullomer peptide induces mitochondrial pathology, metabolic suppression, and enhanced immune cell infiltration, in triple-negative breast cancer mouse model” (Biomedicine & pharmacotherapy = Biomedecine & …, 2023).

Entries after “also recorded” stand apart in the source; their conditions may differ. Ends that are not written are not given here.

The subject of series [1] is 4T1.2-Luc TNBC tumors in Balb/c mice. Kind of series: 4T1.2-Luc orthotopic TNBC mouse model, unilateral tumors, eight IP doses. The series is classed as in vivo. Particulars: trehalose only group, H&E scoring. An excerpt: (§1) The model was created by orthotopically injecting 4T1.2-Luc cells in the 4th mammary fat pad of Balb/c mice, with 1 × 10^5 cells per mouse. The cell line was developed by Dr. Cheryl L. Jorcyk and expresses the luciferase gene which serves as a luminescent indicator of gene expression or tumorigenesis, making the tumor cell traceable in vivo. Treatment started after the formation of palpable tumors and was detected by in vivo BLI (IVIS, Perkin Elmer) followed by randomization of the animals per group. For evaluating the effect of the peptides on this model, we carried out two separate studies. […]
Mice were anesthetized by isoflurane followed by measurement of the tumor length and width using a manual Vernier caliper. This was performed before every drug administration and the tumor volume was calculated using the formula (length × width^2)/2. Body weights were also measured before every dose of the drug.
Whole-body bioluminescence imaging (BLI) using the In Vivo Imaging System (IVIS® Spectrum, Perkin Elmer) was performed to detect in vivo tumor burden and metastasis, as evaluated by the bioluminescence signal from the 4T1.2-Luc cells. […] The images were analyzed by Perkin Elmer software and Aura Version 4.0.7 (Spectral instruments Imaging). […]

For series [2] the test system is unchanged. Nature of the series: Pilot study, 4T1.2-Luc bilateral mammary tumor model, six IP doses. It counts as in vivo, mouse. Particulars: study-1, trehalose only group.
Text: as §1, with “studies. The first pilot study involved a set of 4 mice per group with bilateral mammary tumors, which received six IP administration of PBS, 9S1R-NulloPT drug at 50 mg/kg, 100 mg/kg body weight or Trehalose, over a period of 2 weeks. The present study includes a set of 7–9 mice per group with unilateral tumors including the same groups as in the pilot study, but received a total of eight injections per mouse over a period of 2 weeks.” for “studies.”
Supplementary Fig 2: Detailed results from pilot first study with six IP administration of PBS (control), Trehalose, 50mg/kg NulloPT and 100 mg/kg NulloPT in TNBC mice. […] Treatment started after the formation of palpable tumors and was detected by an in vivo BLI system (IVIS, Perkin Elmer) followed by randomization of the animals per group. […]

The nature of series [3]: Half-life of peptide 9S1R in serum. Conditions: bovine, fetal bovine serum; peptide spiked into FBS, 37 °C, exposure 30 s, 5, 30, 60, 90 min; 75% ice cold acetonitrile precipitation; HPLC-QTOF MS, log2 EIC peak area vs time; read-out: half-life (t1/2) in fetal bovine serum. It counts as in vitro ADME. As to the method:
The half-life of peptide 9S1R was determined by spiking the peptide into fetal bovine serum (FBS) for exposure times of 30 s and 5, 30, 60 or 90 min. During the exposure, FBS containing the spike peptides were incubated at 37 °C. The exposure was halted, and the peptide was extracted from FBS using protein precipitation. Protein precipitation was accomplished using 75% ice cold acetonitrile, followed by incubation at − 20 °C for one hour, and centrifugation at 9000 rpm for 10 min at […]. The supernatant was removed and saved for analysis. Peptide samples were analyzed by High pressure liquid chromatography (HPLC) mass spectrometry (MS) using an ultra-high-resolution Quadrupole Time of Flight (QTOF) instrument (Bruker maxis, Bruker Corporation, Billerica, MA, USA). HPLC mobile phase consisted of 18 MΩ H2O and HPLC grade formic acid and acetonitrile (> 99% purity, Fisher Scientific, Pittsburgh, PA, USA). The electrospray ionization (ESI) source was operated under the following conditions: positive ion mode; nebulizer pressure: 1.2 Bar; flow rate of drying gas (N2): 8 L/min; drying gas temperature: 200 °C; voltage between HV capillary and HV end-plate offset: 3000 V to – 500 V; mass range was set from 250 to 2900 m/z; and the quadrupole ion energy was 4.0 eV. […]

The test system of the next series is 4T1.2 cells. Nature of the series: LC-MS detection of peptide internalization within cells. It counts as cell-based, mouse. Particulars: 50uM, 2h, PBS wash, lysis, 3KDa filter, 3+ and 4+ forms. On the procedure: Supplementary Fig 1: Detection of peptide internalization and stability within cells. (A) LC-MS Graph showing peak of peptide only spike at 1mg/ml final concentration (positive control) (B) Sample-1: 2 × 10^5 4T1.2 cells lysate was filtered through a 3KDa cut-off Amicon protein filters (Millipore) to get rid of proteins larger than 3KDa, followed by LC-MS detection (negative control). (C) Sample-2: 2 × 10^5 4T1.2 cells lysate (50ul) was mixed with the peptide at 1mg/ml final concentration and incubated for 30 mins followed by filtering through 3 KDa cut-off filter and LC-MS detection. (D) Sample-3: 50 ul of filtered cell lysate or Sample-1 was mixed with the peptide at 1mg/ml final concentration and incubated for 30 mins followed by LC-MS detection. (E) Sample-4: Cells were treated with 50uM of peptide and incubated for 2h followed by washing in PBS, lysis, passing through 3KDa protein filter, and detection by LC-MS. […] (G) Enlarged peaks from- C, Sample-2 with (H) extracted ion chromatogram (EIC) peaks of the detected peptide at the exact 3+ and 4+ valance forms (red circles). (I) Enlarged peaks from- E, Sample-4 with (J) extracted ion chromatogram (EIC) peaks of the detected peptide at the exact 3+ and 4+ valance forms (red circles).

Take `OC[C@H]1O[C@H](O[C@H]2O[C@H](CO)[C@@H](O)[C@H](O)[C@H]2O)[C@H](O)[C@@H](O)[C@@H]1O` [Trehalose]: the “immune cell infiltration or margin inflammation on the tumors” value in series [1] is given as “did not show any effect”. Moreover, in series [2], the “tumor size with trehalose alone” value was “higher than control tumor size”.
With RRRRRWCMNW [9S1R], the half-life in series [3] came to 8.7 min. Also, in the series on 4T1.2 cells, the “uptake of native untagged peptide inside cells by mass spectrometry” value is “detected inside cells in two forms; also recorded: available inside the cells”.
